From patent US20140186329A1, “POLYPHENOL ANALOGS TO TREAT ISCHEMIA” (priority 2011, published 2014)

Tested on: primary cortical neurons
Experiment: Trophic factor withdrawal
Assay type: cell-based, rat
Settings: serum-containing medium, 10-10,000 nM, 2 days
Description: FIG. 5 illustrates pharmacological effects of Baicalein on cultured cells. (A) Trophic factor withdrawal. Primary cortical neurons are prepared from 18-day-old rat embryos, and cultured at low cell density 1×10^6/35 mm dish, in serum containing medium with Baicalein (10-10,000 nM), and viability assayed 2 days later using a live-dead assay. (B) Excitotoxicity assay was done with E14 mouse primary cortical neuron cultures. After 11 days of culture, cells were exposed to 10 μM glutamate for 10 min, followed by the addition of varying concentrations of Baicalein (0.2-5 μM). Cell viability was determined 24 hr later with a standard MTT assay. (C) PC12 cells were glucose-deprived then were incubates in the absence or presence of Baicalein. Cell viability was determined 24 hr later using the MTT assay. (D) RCG-5 nerve cells were treated with 30 μM iodoacetic acid for 2 hr in the presence or absence of 5-25 μM Baicalein. In some experiments, Baicalein was added 2 hr after the ischemic event. Cell survival (%) was measured after 24 hr by the MTT assay. Baicalein added before (□) or 2 hr after ([…]) ischemia. […] These include trophic factor withdrawal (TFW), excitotoxicity, glucose starvation, and most importantly, in a chemical ischemia model. […] (FIG. 5A). Using a published excitotoxicity assay, Baicalein rescues about 35% of the cells (FIG. 5B).

O=c1cc(-c2ccccc2)oc2cc(O)c(O)c(O)c12 [Baicalein, 5,6,7-trihydroxyflavone, reference compound]
survival of low-density cultured cortical neurons: dramatically promotes the survival
